The test system of one experiment is Mus musculus. As to the kind of experiment: Antithrombotic activity after oral administration in mouse was measured as protection vs control percent. It counts as functional.
A further experiment is filed under the species Cavia porcellus. As to the kind of experiment: Inotropic activity evaluated in vitro in spontaneously beating guinea pig atria;IA-Inactive. It counts as functional.
Another experiment relates to Rattus norvegicus. As to the kind of experiment: The dose (administered orally) that lowered blood pressure by 50 mmHg in conscious, spontaneously hypertensive rats (SHR) (peak effect); IA-Inactive. In kind it is functional, organism-based.

Molecules are shown by their SMILES. The source made the active and inactive calls. The calls are words filed in the database; no cut-off is given here.

In the case of `Nc1ccc2c(c1)CCC1CC(=O)NN=C21` (stereo not given), in the experiment with Mus musculus, the Activity is recorded as 73.
In the case of `CC(=O)Nc1ccc2c(c1)CCCC1CC(=O)NN=C21` (stereo not given), in the experiment on Mus musculus, the Activity was determined as 46. The pD2 entry in the experiment filed under Cavia porcellus is “inactive”. In the experiment with Rattus norvegicus, the ED50 result was “inactive”.
The compound `CC(=O)Nc1ccc2c(c1)CCC1CC(=O)NN=C21` (stereo not given) displayed an Activity in the experiment on Mus musculus of 100.
Turning to `Nc1ccc2c(c1)CCCC1CC(=O)NN=C21` (stereo not given), the Activity with Mus musculus was found to be 45. Moreover, the pD2 result in the experiment listed under Cavia porcellus is “inactive”. Also, the ED50 result with Rattus norvegicus is “inactive”.
Compound `Nc1ccc2c(c1)CC1CC(=O)NN=C21` (stereo not given) displayed an Activity in the experiment on Mus musculus of 87.
`CC(=O)Nc1ccc2c(c1)CC1CC(=O)NN=C21` (stereo not given) showed an Activity in the experiment on Mus musculus of 100.
